The record followed here is PMC5449183, “Helical jackknives control the gates of the double-pore K^+ uptake system KtrAB” (eLife, 2017).

In series [1] the target is T1, KtrA (RCK subunit of the KtrAB complex) (Vibrio alginolyticus, UniProt O87952). Kind of series: ITC on detergent-solubilized KtrAB; […] Å cryo-EM map in the presence of ADP (EMD-3450); pulsed EPR. Format: binding. The arrangement: full-length KtrAB, His10-KtrAB, detergent-solubilized complex (octameric KtrA ring); with KtrB.
Series [2] addresses T1, KtrA (RCK subunit of the KtrAB complex). Kind of series: biochemical.
The target of series [3] is KtrB from Vibrio alginolyticus (untagged, of the His10-KtrAB complex) (Vibrio alginolyticus) (UniProt O87953). As to the kind of experiment: cryo-EM structure; His10-KtrAB 5 mg/ml, detergent-solubilised (1.5 mM Cymal-6), 600 uM ADP, 70 mM NaCl, 30 mM KCl, 20 mM Tris-HCl pH 8.0; 20,500 particles, D2 symmetry, 6.6 A; model by flexible fitting of a homology model.
Series [4] concerns the molecule itself. Described as above.

The Kd is the constant that tells how readily two partners part at equilibrium. The term stoichiometry N denotes the number of molecules, sites or subunits per partner or assembly.

T1 sequence (O87953 whole entry, one chain of several, further chain): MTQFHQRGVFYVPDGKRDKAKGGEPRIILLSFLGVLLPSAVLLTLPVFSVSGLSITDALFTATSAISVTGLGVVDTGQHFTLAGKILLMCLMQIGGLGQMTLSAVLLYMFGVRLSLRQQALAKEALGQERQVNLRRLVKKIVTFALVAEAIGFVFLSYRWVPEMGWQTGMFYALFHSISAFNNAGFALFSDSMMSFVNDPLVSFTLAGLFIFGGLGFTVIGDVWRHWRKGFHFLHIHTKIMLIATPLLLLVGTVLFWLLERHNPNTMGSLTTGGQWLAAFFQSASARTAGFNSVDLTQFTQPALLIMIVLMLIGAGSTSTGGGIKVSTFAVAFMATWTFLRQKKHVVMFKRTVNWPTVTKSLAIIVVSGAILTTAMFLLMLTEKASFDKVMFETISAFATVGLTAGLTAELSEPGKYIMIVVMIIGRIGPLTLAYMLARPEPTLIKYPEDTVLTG

For `Nc1ncnc2c1ncn2[C@@H]1O[C@H](COP(=O)(O)OP(=O)(O)O)[C@@H](O)[C@H]1O` [ADP], the dissociation constant (Kd) in series [1] came to 3 µM.
In series [2], `Nc1ncnc2c1ncn2[C@@H]1O[C@H](COP(=O)(O)OP(=O)(O)OP(=O)(O)O)[C@@H](O)[C@H]1O` [ATP] returned a dissociation constant (Kd) of 2 µM.
“KtrB from Vibrio alginolyticus (untagged, of the His10-KtrAB complex) (from UniProt O87953 1-455) (natural protein)” showed a stoichiometry N in series [3] of 2.

B1: KtrA from Vibrio alginolyticus (His10-KtrA of the His10-KtrAB complex) (natural protein, UniProt O87952 1-220, looked up)
chain: MKTGDKQFAVIGLGRFGLAVCKELQDSGSQVLAVDINEDRVKEAAGFVSQAIVANCTHEETVAELKLDDYDMVMIAIGADVNASILATLIAKEAGVKSVWVKANDRFQARVLQKIGADHIIMPERDMGIRVARKMLDKRVLEFHPLGSGLAMTEFVVGSRLMGKTLSDLALCKVEGVQVLGYKRGPEIIKAPDMSTTLEIGDLIIVVGPQDKLANKLKSL
notes: KtrA, cytoplasmic RCK subunit of the K+ uptake system KtrAB, Vibrio alginolyticus; gene amplified from genomic DNA; Forms an octameric ring (eight chains) in the complex KtrB2A8B2; The N-terminal end of the tag is read from the label His10-KtrAB; ADP (600 uM) was present in the cryo-EM sample; also called VaKtrA; RCK subunit; source: E. coli LB2003, co-expressed with KtrB from pBAD18 …
As to B1, the “stoichiometry N” value in series [4] was 8.
